Source: ChEMBL document CHEMBL5241087, “A review on the structures and biological activities of anti-Helicobacter pylori agents” (Eur J Med Chem, 2021)
≈ marks a conversion by molar mass, not a printed value.

Assays:
Helicobacter pylori [1] = experiment: Antimicrobial activity against Helicobacter pylori assessed as inhibition of bacterial growth incubated for 72 hrs by broth dilution method; type: functional
[2] = biological target: T1, Aminodeoxyfutalosine nucleosidase (Helicobacter pylori (strain J99 / ATCC 700824) (Campylobacter pylori J99), UniProt Q9ZMY2); experiment: Inhibition of Helicobacter pylori MTAN assessed as dissociation constant
T1 sequence (Q9ZMY2 whole entry): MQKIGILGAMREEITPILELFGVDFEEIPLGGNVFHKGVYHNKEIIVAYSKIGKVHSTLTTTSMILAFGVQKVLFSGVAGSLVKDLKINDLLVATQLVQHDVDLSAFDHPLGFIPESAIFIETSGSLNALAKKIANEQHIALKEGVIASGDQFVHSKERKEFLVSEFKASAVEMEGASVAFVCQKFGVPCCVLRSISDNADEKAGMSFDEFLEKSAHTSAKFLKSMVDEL

[3] = Plasma protein binding in human; type: ADME, cell-free; settings: read-out: PPB (converted)
[4] = Inhibition of urease (unknown origin)
[5] = Inhibition of Helicobacter pylori IMPDH incubated for 10 mins in presence of […] by multilabel reader analysis
Helicobacter pylori [6] = experiment: Antimicrobial activity against Helicobacter pylori KA05 assessed as inhibition of bacterial growth by broth dilution method; type: functional
Helicobacter pylori [7] = experiment: Antibacterial activity against metronidazole-resistant Helicobacter pylori assessed as diameter of zone inhibition at 12.5 to 100 ug per disk by paper disk diffusion assay; type: functional; settings: dose 12.5-100 µg
Helicobacter pylori [8] = experiment: Antibacterial activity against metronidazole-resistant Helicobacter pylori ATCC 43504; type: functional, organism-based
[9] = Inhibition of Helicobacter pylori GatCAB assessed as inhibition constant
Helicobacter pylori [10] = experiment: Antibacterial activity against Helicobacter pylori; type: functional
Helicobacter pylori [11] = experiment: Antibacterial activity against Helicobacter pylori assessed as bacterial growth inhibition; type: functional
Helicobacter pylori [12] = experiment: Antibacterial activity against Helicobacter pylori assessed as diameter of zone inhibition at 25 to 100 ug per disk incubated for […] by disk diffusion assay; type: functional; settings: dose 25-100 µg
[13] = Antioxidant activity assessed as radical scavenging activity; type: functional
Helicobacter pylori [14] = experiment: Antibacterial activity against clinical isolate Helicobacter pylori assessed as bacterial growth inhibition incubated for 72 hrs by agar dilution method; type: functional
Helicobacter pylori [15] = experiment: Inhibition of Helicobacter pylori IMPDH at 10 uM incubated for 10 mins in presence of […] by multilabel reader analysis relative to control
[16] = biological target: Inosine-5'-monophosphate dehydrogenase 2 (Homo sapiens) (UniProt P12268); experiment: Inhibition of human IMPDH at 10 uM incubated for 10 mins by multilabel reader analysis relative to control
Inosine-5'-monophosphate dehydrogenase 2 (Homo sapiens), sequence (P12268 2-514 limits assumed): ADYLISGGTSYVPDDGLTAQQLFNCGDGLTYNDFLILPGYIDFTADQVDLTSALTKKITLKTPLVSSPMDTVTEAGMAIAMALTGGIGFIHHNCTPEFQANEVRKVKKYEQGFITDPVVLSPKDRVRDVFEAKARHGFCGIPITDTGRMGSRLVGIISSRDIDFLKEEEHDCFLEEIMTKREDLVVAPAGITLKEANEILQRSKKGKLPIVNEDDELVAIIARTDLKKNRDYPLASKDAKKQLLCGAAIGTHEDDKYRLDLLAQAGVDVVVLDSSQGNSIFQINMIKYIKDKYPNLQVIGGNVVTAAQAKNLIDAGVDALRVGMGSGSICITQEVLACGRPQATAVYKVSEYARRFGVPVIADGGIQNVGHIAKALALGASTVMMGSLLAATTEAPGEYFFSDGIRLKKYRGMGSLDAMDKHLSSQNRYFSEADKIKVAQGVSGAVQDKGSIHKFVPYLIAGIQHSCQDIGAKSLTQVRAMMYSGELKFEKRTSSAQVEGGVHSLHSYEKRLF

[17] = Inhibition of Helicobacter pylori IMPDH incubated for 10 mins by multilabel reader analysis
Helicobacter pylori [18] = experiment: Antibacterial activity against wild type Helicobacter pylori; type: functional
Glutamate racemase = biological target: T2, Glutamate racemase (Helicobacter pylori J99, UniProt Q9ZLT0); experiment: Inhibition of Helicobacter pylori Glutamate racemase
T2 sequence (Q9ZLT0 whole entry): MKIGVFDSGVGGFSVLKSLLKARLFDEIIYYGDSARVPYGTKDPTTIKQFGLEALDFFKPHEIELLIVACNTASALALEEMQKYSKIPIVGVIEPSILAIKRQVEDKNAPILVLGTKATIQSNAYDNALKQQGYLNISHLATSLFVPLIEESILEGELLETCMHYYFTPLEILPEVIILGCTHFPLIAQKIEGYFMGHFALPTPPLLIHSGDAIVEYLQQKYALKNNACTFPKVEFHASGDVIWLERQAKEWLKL

Helicobacter pylori [19] = experiment: Antimicrobial activity against Helicobacter pylori EP1836 assessed as inhibition of bacterial growth; type: functional
Helicobacter pylori [20] = experiment: Antimicrobial activity against Helicobacter pylori EP1757 assessed as inhibition of bacterial growth; type: functional
Helicobacter pylori [21] = experiment: Antibacterial activity against Helicobacter pylori P12 assessed as reduction in bacterial growth by broth microdilution method; type: functional
Helicobacter pylori [22] = experiment: Antibacterial activity against Helicobacter pylori SS1 assessed as reduction in bacterial growth by broth microdilution method; type: functional
Helicobacter pylori [23] = experiment: Antibacterial activity against Helicobacter pylori ATCC 43504 assessed as bacterial growth inhibition; type: functional
[24] = Inhibition of Helicobacter pylori IMPDH
Helicobacter pylori [25] = experiment: Antibacterial activity against metronidazole-resistant Helicobacter pylori assessed as diameter of zone inhibition at 16 to 32 ug per disk incubated for 2 to 10 days by disk diffusion assay; type: functional; settings: dose 16-32 µg; time 2-10 day
Helicobacter pylori [26] = experiment: Antibacterial activity against metronidazole-resistant Helicobacter pylori incubated for 72 hrs; type: functional
Helicobacter pylori [27] = experiment: Antibacterial activity against metronidazole-resistant Helicobacter pylori assessed as inhibition zone at 50 ug per disk by paper disk diffusion assay; type: functional; settings: read-out: IZ
Helicobacter pylori [28] = experiment: Antibacterial activity against Helicobacter pylori assessed as diameter of zone inhibition at 12.5 to 100 ug per disk incubated for […] by disk diffusion assay; type: functional; settings: dose 12.5-100 µg

SMILES: CC1=C(C=O)C(C)(C)CC=C1
- MIC50 (Helicobacter pylori [1]): 2 µg/mL (≈ 13.3 µM)

SMILES: CC1=C(/C=N/NC(N)=S)C(C)(C)CC=C1
- MIC90 (Helicobacter pylori [1]): 4 µM (≈ 0.893 µg/mL)

SMILES: CCCCCCSC[C@H]1CN(Cc2c[nH]c3c(N)ncnc23)C[C@@H]1O
- Kd [2]: < 50 nM

SMILES: O=C(CC(O)c1cc(Cl)ccc1OCc1ccccc1)NO (centres undefined)
- fraction unbound [3]: 0.56
- IC50 [4]: 150 nM

SMILES: O=C(COc1ccc2ccccc2c1)Nc1ccc2c(c1)COC2=O
- IC50 [5]: 2210 nM

SMILES: COc1cc2ccc(=O)oc2cc1O [SCOPOLETIN]
- MIC (Helicobacter pylori [6]): 50 µg/mL (≈ 260 µM)

SMILES: CC(Sc1nnc(-c2ncc([N+](=O)[O-])n2C)s1)c1ccccc1 (centres undefined)
- diameter of the inhibition zone (DIZ) (Helicobacter pylori [7]): >50 mm

SMILES: CN(CCO)CC(O)COc1cccc2c(=O)c3ccccc3oc12.Cl (centres undefined)
- IC50 (Helicobacter pylori [8]): 5 µg/mL

SMILES: COc1ccc(C[C@H](N)C(=O)N[C@H]2[C@@H](O)[C@H](n3cnc4c(N(C)C)ncnc43)O[C@@H]2CO)cc1 [PUROMYCIN]
- Ki [9]: 4 µM

SMILES: COc1cc2ccc(=O)oc2cc1O[C@@H]1O[C@H](CO)[C@@H](O)[C@H](O)[C@H]1O [SCOPOLIN]
- MIC (Helicobacter pylori [6]): 50 µg/mL (≈ 141 µM)

SMILES: CCCCCCCOC(=O)/C=C/c1ccc(O)c(O)c1
- MIC (Helicobacter pylori [10]): 250 µg/mL (≈ 898 µM)

SMILES: CCCCSC[C@H]1CN(Cc2c[nH]c3c(N)ncnc23)C[C@@H]1O
- Kd [2]: < 50 nM

SMILES: Cn1c([N+](=O)[O-])cnc1/C=C1\S/C(=N/c2cccs2)NC1=O
- MIC (Helicobacter pylori [11]): < 1.5 µg/mL

SMILES: Cc1ncc([N+](=O)[O-])n1CCO [METRONIDAZOLE]
- diameter of the inhibition zone (DIZ) (Helicobacter pylori [12]): 10 mm
- ED50 [13]: 5.4 µg/mL (≈ 31.6 µM)
- MIC (Helicobacter pylori [11]): > 254 µg/mL
- MIC (Helicobacter pylori [14]): 2 µg/mL (≈ 11.7 µM)

SMILES: CC[C@H]1OC(=O)[C@H](C)[C@@H](O[C@H]2C[C@@](C)(OC)[C@@H](O)[C@H](C)O2)[C@H](C)[C@@H](O[C@@H]2O[C@H](C)C[C@H](N(C)C)[C@H]2O)[C@](C)(OC)C[C@@H](C)C(=O)[C@H](C)[C@@H](O)[C@]1(C)O [CLARITHROMYCIN]
- MIC (Helicobacter pylori [10]): 0.78 µg/mL (≈ 1.04 µM)

SMILES: COC1=CC(=O)c2c(cc(C)c(C(C)=O)c2O)C1=O
- MIC50 (Helicobacter pylori [10]): 0.3 µM (≈ 0.0781 µg/mL)
- MIC90 (Helicobacter pylori [10]): 0.39 µM (≈ 0.101 µg/mL)

SMILES: COc1ccc(-c2oc3ccccc3c(=O)c2OCC(=O)Nc2ccc3c(c2)COC3=O)cc1
- inhibition (Helicobacter pylori [15]): > 70%
- inhibition [16]: 57%
- IC50 [5]: 2210 nM
- IC50 [17]: 1880 nM

SMILES: CCCSC[C@H]1CN(Cc2c[nH]c3c(N)ncnc23)C[C@@H]1O
- Kd [2]: < 50 nM

SMILES: C=C(C)C(CC=C(C)C)CC1(CC=C(C)C)C(=O)C(C(CCC)CC(=O)O)=C2O[C@H](C)[C@@H](C)C(=O)C2=C1O (some centres undefined)
- MIC (Helicobacter pylori [10]): 12.5 µg/mL (≈ 23.7 µM)

SMILES: CCCCOC(=O)/C=C/c1ccc(O)c(O)c1 [BUTYL CAFFEATE]
- MIC (Helicobacter pylori [10]): 250 µg/mL (≈ 1060 µM)

SMILES: Clc1ccc(Cn2cc(COc3cccc4ccccc34)nn2)cc1Cl
- IC50 [17]: 1270 nM

SMILES: Cn1cc(C#N)cc1-c1c2c(=O)n(C)c(=O)n(CC3CC3)c2nn1Cc1ccnc2ccc(Cl)cc12
- MIC (Helicobacter pylori [18]): 0.5 µg/mL (≈ 1 µM)
- IC50 (Glutamate racemase): 26 nM

SMILES: Cn1cnc([N+](=O)[O-])c1S(=O)(=O)c1ccccc1
- MIC (Helicobacter pylori [14]): 32 µg/mL (≈ 120 µM)

SMILES: CC1=C(/C=N/Nc2nc(-c3cccc([N+](=O)[O-])c3)cs2)C(C)(C)CC=C1
- MIC50 (Helicobacter pylori [1]): 2 µg/mL (≈ 5.43 µM)

SMILES: C=C(C)CCC(CC1(CC=C(C)C)C(=O)C(C(CCC)CC(=O)O)=C2O[C@H](C)[C@@H](C)C(=O)C2=C1O)C(=C)C (some centres undefined)
- MIC (Helicobacter pylori [10]): 50 µg/mL (≈ 94.9 µM)

SMILES: NC(=O)Cc1csc(SC2=C(C(=O)O)N3C(=O)[C@@H](NC(=O)Cc4ccccc4)[C@H]3SC2)n1
- MIC (Helicobacter pylori [19]): 3.13 ng/mL (≈ 0.00638 µM)
- MIC (Helicobacter pylori [20]): 0.78 ng/mL (≈ 0.00159 µM)

SMILES: CN(O)C(=O)CC(O)c1cccc(Cl)c1 (centres undefined)
- IC50 [4]: 1100 nM

SMILES: CC1=C(/C=N/N(C)C(N)=S)C(C)(C)CC=C1
- MIC90 (Helicobacter pylori [1]): 4 µM (≈ 0.949 µg/mL)

SMILES: O=C1N/C(=N\c2cccs2)S/C1=C\c1ccc([N+](=O)[O-])o1
- MIC (Helicobacter pylori [11]): < 1.5 µg/mL

SMILES: COC1=CC(=O)c2c(c(OC)c3cc(C)oc(=O)c3c2O)C1=O
- ED50 [13]: 1.58 µg/mL (≈ 5 µM)
- MIC (Helicobacter pylori [11]): 64 µg/mL (≈ 202 µM)

SMILES: CCOc1ccc2nc(S(N)(=O)=O)sc2c1 [ETHOXZOLAMIDE]
- MIC (Helicobacter pylori [21]): 200 µM (≈ 51.7 µg/mL)
- MIC (Helicobacter pylori [22]): 200 µM (≈ 51.7 µg/mL)

SMILES: Cc1ncc([N+](=O)[O-])n1CCOc1cc(O)c2c(=O)c(-c3ccc(O)cc3)coc2c1
- MIC (Helicobacter pylori [23]): 0.39 µg/mL (≈ 0.921 µM)

SMILES: O=C(Cn1cc(/N=N/c2cccnc2)c2ccccc21)Nc1ccc(Cl)cc1
- IC50 [24]: 800 nM

SMILES: CO/N=C(/CN1CCN(c2cc3c(cc2F)c(=O)c(C(=O)O)cn3C2CC2)CC1)c1ccccc1Cl
- diameter of the inhibition zone (DIZ) (Helicobacter pylori [25]): 6 mm

SMILES: CN(C)c1ncnc2c1ncn2[C@@H]1O[C@H](CO)[C@@H](NC(=O)[C@@H](N)CCS(C)(=O)=O)[C@H]1O
- Ki [9]: 4 µM
- IC50 [17]: 1270 nM

SMILES: O=C(Cn1cc(/N=N/c2cccnc2)c2ccccc21)Nc1ccc2ccccc2c1
- IC50 [24]: 800 nM

SMILES: O=c1oc2ccccc2cc1-c1csc(N/N=C/c2ccco2)n1
- MIC (Helicobacter pylori [26]): ≥ 16 µg/mL

SMILES: O=C(CSc1nnc(-c2ccc([N+](=O)[O-])o2)s1)c1ccccc1Cl
- zone of inhibition at 50 µg/disc (Helicobacter pylori [27]): ≥ 20 mm

SMILES: NNc1nc(-c2cc3ccccc3oc2=O)cs1
- MIC (Helicobacter pylori [26]): ≥ 16 µg/mL

SMILES: CCCNC(=O)CSc1nnc(-c2ccc([N+](=O)[O-])o2)s1
- diameter of the inhibition zone (DIZ) (Helicobacter pylori [12]): 10 mm
- diameter of the inhibition zone (DIZ) (Helicobacter pylori [28]): 33 mm
